According to article PMC11441106 (Journal of medicinal chemistry, 2024):

What was measured:
D1R = D1R (Homo sapiens, UniProt P21728); assay: Tango β-arrestin recruitment at D1R; format: cell-based; details: Tango assay
GABAA = assay: NIMH-PDSP broad-panel counter screening
in vivo = details: rat
hERG = hERG (Homo sapiens, UniProt Q12809); format: binding
α 1D = biological target: T1, α 1D (Homo sapiens, UniProt P25100); assay: NIMH-PDSP broad-panel counter screening; details: read-out: % inhibition (10 μM)
T1 sequence (P25100 1-572): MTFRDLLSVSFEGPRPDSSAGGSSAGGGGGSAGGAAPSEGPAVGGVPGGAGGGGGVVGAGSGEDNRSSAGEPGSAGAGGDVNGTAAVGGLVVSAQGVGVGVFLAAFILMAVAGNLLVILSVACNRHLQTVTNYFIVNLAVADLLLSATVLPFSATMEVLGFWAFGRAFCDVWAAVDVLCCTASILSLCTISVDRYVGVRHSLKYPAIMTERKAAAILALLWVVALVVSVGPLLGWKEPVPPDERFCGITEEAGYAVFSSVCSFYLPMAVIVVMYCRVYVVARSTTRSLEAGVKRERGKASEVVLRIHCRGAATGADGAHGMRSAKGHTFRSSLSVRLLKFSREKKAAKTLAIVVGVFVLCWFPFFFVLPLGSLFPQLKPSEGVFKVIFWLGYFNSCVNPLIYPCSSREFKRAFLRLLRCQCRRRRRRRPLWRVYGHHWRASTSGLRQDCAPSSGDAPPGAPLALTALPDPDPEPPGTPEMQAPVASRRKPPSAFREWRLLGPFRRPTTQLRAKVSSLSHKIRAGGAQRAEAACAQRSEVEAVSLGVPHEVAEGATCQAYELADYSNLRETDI

Sequence of D1R (P21728 whole entry): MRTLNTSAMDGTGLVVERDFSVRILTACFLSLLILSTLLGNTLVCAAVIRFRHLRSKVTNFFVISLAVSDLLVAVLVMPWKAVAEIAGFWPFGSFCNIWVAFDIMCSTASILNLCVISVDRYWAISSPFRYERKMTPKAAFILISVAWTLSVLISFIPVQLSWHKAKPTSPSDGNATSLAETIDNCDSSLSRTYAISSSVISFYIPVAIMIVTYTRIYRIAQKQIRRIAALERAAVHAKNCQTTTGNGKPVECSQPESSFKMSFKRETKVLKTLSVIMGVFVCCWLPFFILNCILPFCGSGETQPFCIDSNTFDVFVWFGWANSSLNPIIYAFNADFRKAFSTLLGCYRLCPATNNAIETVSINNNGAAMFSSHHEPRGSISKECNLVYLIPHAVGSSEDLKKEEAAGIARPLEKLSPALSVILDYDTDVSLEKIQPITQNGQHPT
Sequence of hERG (Q12809 whole entry): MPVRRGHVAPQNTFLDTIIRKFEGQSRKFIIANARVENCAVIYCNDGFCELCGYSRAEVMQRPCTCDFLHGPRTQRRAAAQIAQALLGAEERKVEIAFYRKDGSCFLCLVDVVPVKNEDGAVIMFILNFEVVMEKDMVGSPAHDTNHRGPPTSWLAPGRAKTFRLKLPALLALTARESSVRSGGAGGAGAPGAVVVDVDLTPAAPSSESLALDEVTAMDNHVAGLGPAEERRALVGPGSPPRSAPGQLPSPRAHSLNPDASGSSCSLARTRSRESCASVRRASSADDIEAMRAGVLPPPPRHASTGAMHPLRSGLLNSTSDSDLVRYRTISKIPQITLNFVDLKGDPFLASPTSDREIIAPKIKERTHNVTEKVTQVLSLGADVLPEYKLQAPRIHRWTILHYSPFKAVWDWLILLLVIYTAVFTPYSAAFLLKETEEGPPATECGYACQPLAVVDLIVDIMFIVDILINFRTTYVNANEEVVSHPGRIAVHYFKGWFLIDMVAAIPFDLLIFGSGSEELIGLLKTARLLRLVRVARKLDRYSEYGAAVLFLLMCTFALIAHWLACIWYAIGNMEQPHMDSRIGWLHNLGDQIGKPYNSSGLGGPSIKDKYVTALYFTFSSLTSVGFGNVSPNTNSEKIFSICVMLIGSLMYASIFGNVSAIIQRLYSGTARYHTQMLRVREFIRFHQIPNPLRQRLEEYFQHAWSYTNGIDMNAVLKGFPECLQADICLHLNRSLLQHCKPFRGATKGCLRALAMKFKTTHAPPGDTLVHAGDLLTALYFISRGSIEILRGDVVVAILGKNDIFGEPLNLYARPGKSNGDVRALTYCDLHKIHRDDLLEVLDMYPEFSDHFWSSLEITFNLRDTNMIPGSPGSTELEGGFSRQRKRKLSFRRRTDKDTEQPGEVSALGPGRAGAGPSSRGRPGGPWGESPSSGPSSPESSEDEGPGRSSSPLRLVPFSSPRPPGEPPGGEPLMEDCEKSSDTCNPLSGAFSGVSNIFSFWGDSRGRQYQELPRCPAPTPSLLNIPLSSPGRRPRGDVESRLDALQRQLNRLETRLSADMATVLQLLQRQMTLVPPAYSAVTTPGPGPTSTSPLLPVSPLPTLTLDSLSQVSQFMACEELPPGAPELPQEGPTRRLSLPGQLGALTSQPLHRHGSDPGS

Row | SMILES | β-arrestin recruitment response at D1R (D1R) | % inhibition (10 μM) (GABAA) [%] | Vd (in vivo; male, Sprague-Dawley, plasma, iv, 10 mg/kg) [L/kg] | CL (in vivo; in vivo, po, 20 mg/kg) [mL/min/kg] | hERG inhibition or binding affinity (hERG) | inhibition at 10 µM (α 1D) [%]
1 | O=C(NCCO)c1cccc2c1CCN2c1cc(Cc2cccc(C(F)(F)F)c2)ccn1 [Compound 4a] | no response |  |  |  |  | 
2 | Cc1c(Nc2cc(Cc3cccc(C(F)(F)F)c3)ccn2)cccc1C(=O)NCCO [Compound 15b, N-(2-Hydroxyethyl)-2-methyl-3-((4-(3-(trifluoromethyl)benzyl)-pyridin-2-yl)amino)benzamide] |  | −17.94 | 1.85 | 103 ± 35 | did not show inhibition or binding affinity | -10.5
